According to PMC8322070, “A novel orally active HDAC6 inhibitor T-518 shows a therapeutic potential for Alzheimer’s disease and tauopathy in mice” (Scientific Reports, 2021):

Test system: P301S tau Tg mice
Assay: Tau accumulation in hippocampus by RAB-RIPA-FA extraction and Western blotting
Assay type: in vivo, mouse
Settings: 3 mg/kg daily, from 6 to 9 months of age
Experimental: T-518, ACY-738, Ricolinostat, and Tubastatin A were synthesized in Takeda. For in vitro cellular experiments, the compounds were solubilized with DMSO and diluted in the culture medium at the indicated concentrations. For in vivo experiments, the compound was reconstituted in 0.5% methylcellulose and administered orally at the indicated doses. After administration, mouse hippocampus was isolated and homogenized in RIPA extraction buffer (50 mM Tris–HCl, 150 mM NaCl, 1% NP-40, 0.5% sodium deoxycholate, and 0.1% SDS, pH 8.0) supplemented with protease and phosphatase inhibitor cocktail (Thermo Fischer, Waltham, MA, USA). The homogenate was centrifuged at 10,000g for 15 min and the supernatant was taken as the RIPA-soluble fraction.
Cell lysate or in vivo protein samples were separated by 10% SDS-PAGE, then electrophoretically transferred to 0.45 μm poly-vinylidene difluoride membranes (Millipore). Membranes were blocked for 1 h in Blocking Reagent (TOYOBO, Osaka, Japan), probed with primary antibodies followed by labeling with HRP-coupled secondary antibodies (Amersham, Piscataway, NJ), and then visualized using chemiluminescence reagent (ECL; Amersham). Images were captured using ImageQuant LAS 4000 (GE healthcare Bio-Sciences, Marlborough, MA, USA). Quantitative densitometric analyses were conducted using ImageQuant TL (GE healthcare Bio-Sciences). […]

O=C1c2cc(-c3nnc(C(F)F)o3)cnc2CN1[C@@H]1CCCC[C@H]1NC(=O)C(F)(F)C(F)(F)F [T-518, N-[(1R,2R)-2-{3-[5-(difluoromethyl)-1,3,4-oxadiazol-2-yl]-5-oxo-5H,6H,7H-pyrrolo[3,4-b]pyridin-6-yl}cyclohexyl]-2,2,3,3,3-pentafluoropropanamide]
RAB-soluble and RIPA-soluble tau fractions in hippocampus: without affecting | accumulation of tau in the FA fraction (RIPA-insoluble tau) in hippocampus: significantly decreased
